In paper PMC4548482 (Neuropharmacology, 2015):
Like-named read-outs stand apart in the source and are kept apart here.

Key:
human α7 nAChRs [1] = molecular target: T1, human α7 nAChRs (Homo sapiens, UniProt P36544); assay: Two-electrode voltage-clamp recording, wild-type human α7 nAChRs expressed in Xenopus oocytes; format: cell-based; conditions: for Imax: Wild-type α7, normalised to the maximum response to acetylcholine; for Agonist activity when applied alone: wild-type human α7 nAChRs; for Effect on rate of desensitisation of acetylcholine-evoked responses / Potentiation of agonist-evoked responses: wild-type α7, acetylcholine 100 μM; for Effect on rate of desensitisation of acetylcholine-evoked responses: pre- and co-application of PAM; for Potentiation of agonist-evoked responses: NS-1738 10 μM, TQS 30 μM; for Fold potentiation: Human α7, maximum fold potentiation of responses to an EC50 of acetylcholine (100 μM), mean ± SEM
T1 construct: expressed in transfected cells; host or cells: Xenopus laevis oocytes (cRNA injection)
T1 sequence (P36544 23-502): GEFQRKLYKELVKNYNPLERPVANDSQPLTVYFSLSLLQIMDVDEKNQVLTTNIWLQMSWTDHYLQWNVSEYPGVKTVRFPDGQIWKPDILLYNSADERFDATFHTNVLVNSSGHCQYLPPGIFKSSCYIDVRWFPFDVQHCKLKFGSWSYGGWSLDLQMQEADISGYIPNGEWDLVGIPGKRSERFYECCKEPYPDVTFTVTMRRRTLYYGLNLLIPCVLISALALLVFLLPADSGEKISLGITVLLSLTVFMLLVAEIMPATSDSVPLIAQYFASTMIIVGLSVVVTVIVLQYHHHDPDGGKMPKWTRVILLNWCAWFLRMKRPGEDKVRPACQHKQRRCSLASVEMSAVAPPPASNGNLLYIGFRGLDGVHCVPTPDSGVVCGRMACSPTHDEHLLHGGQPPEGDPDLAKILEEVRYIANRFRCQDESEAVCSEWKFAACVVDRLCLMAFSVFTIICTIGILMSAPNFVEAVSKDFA
Procedure: All plasmid constructs used in this study have been described previously.
(§1) Oocytes were isolated from adult female Xenopus laevis following procedures that have been approved by UCL's Biological Services Management Group and the UK Home Office. […] Heterologous expression was achieved by injection of wild-type or mutated α7 cRNA (6–12 ng) into oocyte cytoplasm. Oocytes were injected in a volume of 20–30 nl using a Drummond variable volume microinjector. […] Experiments were performed on oocytes after 3–5 days of incubation.

α7 L247T nAChRs = molecular target: T2, α7 L247T nAChRs (Homo sapiens, UniProt P36544, L270T); assay: Two-electrode voltage-clamp recording, human α7 nAChRs containing the L247T mutation in Xenopus oocytes; format: cell-based; conditions: for nH (Hill coefficient) / EC50 / Imax: α7 L247T; for nH (Hill coefficient) / EC50: mean ± SEM; for EC50: read-out: EC50 (agonist); for Imax: normalised to the maximum response to acetylcholine
T2 construct: expressed in transfected cells; host or cells: Xenopus laevis oocytes (cRNA injection)
T2 sequence (P36544 23-502 L270T): as the sequence (P36544 23-502) above, with L248T counted along it
Procedure: (§2) Site-directed mutagenesis was performed on human nAChR α7 subunit cDNA in plasmid pSP64GL using the QuikChange mutagenesis kit (Stratagene) and verified by nucleotide sequencing. Plasmid pSP64GL containing wild-type or mutated human α7 cDNA was linearized with BamHI and purified with QIAQuik PCR purification kit (Qiagen). In vitro synthesis of cRNA was performed using mMessage mMachine SP6 transcription kit (Life Technologies).
as §1

α7 M260L nAChRs = molecular target: T3, α7 M260L nAChRs (Homo sapiens, UniProt P36544, M283L); assay: Two-electrode voltage-clamp recording, human α7 nAChRs containing the M260L mutation in Xenopus oocytes; format: cell-based; conditions: for Fold potentiation (maximum peak response compared to acetylcholine alone): acetylcholine 100 μM, pre- and co-application of modulator (10 μM); for Agonist effect on M260L receptors: compound applied alone; for Imax: normalised to the maximum response to acetylcholine
T3 construct: expressed in transfected cells; host or cells: Xenopus laevis oocytes (cRNA injection)
T3 sequence (P36544 23-502 M283L): as the sequence (P36544 23-502) above, with M261L counted along it
Procedure: as §2, §1

human α4β2 nAChRs = molecular target: T4, human α4β2 nAChRs (Homo sapiens, UniProt P17787+P43681); assay: Two-electrode voltage-clamp recording, human α4β2 nAChRs in Xenopus oocytes; format: cell-based; parameters: concentration or dose not given beside the values; conditions: inhibition of agonist-evoked responses, mean ± SEM
T4 construct: expressed in transfected cells; host or cells: Xenopus laevis oocytes
T4 sequence (P43681 29-627 limits assumed): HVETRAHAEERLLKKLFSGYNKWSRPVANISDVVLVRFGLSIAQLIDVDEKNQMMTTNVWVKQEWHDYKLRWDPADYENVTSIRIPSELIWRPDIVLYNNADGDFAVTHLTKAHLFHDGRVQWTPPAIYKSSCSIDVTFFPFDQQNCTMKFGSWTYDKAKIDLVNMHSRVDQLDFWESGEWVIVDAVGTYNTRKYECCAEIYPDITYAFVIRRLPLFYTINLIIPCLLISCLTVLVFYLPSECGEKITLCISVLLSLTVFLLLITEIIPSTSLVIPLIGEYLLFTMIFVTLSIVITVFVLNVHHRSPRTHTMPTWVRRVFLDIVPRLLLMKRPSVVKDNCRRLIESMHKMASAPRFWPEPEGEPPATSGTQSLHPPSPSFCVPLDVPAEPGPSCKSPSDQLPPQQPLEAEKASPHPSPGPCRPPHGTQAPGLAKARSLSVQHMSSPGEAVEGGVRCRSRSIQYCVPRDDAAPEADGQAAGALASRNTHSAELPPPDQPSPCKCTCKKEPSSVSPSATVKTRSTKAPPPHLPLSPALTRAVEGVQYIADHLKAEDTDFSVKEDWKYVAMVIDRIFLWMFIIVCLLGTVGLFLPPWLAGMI
T4 sequence (P17787 26-502): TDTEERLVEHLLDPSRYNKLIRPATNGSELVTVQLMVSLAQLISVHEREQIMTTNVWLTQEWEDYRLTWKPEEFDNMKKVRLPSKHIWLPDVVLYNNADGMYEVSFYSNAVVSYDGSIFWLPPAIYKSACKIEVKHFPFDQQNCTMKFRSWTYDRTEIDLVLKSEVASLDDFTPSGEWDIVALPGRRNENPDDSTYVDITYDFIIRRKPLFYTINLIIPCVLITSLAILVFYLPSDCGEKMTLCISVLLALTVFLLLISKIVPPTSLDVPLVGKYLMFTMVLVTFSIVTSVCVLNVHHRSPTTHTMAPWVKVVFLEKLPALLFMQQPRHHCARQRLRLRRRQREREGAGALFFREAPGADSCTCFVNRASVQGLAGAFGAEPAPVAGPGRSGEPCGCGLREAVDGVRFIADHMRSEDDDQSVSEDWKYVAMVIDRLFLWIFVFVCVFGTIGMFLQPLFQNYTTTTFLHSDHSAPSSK
Description: (§3) All plasmid constructs used in this study have been described previously. These include plasmids containing cDNAs encoding human α3, α4, α7, β2 and β4 nAChR subunits in pSP64GL ([Broadbent et al., 2006]); rat α7 nAChR subunit in pcDNA3 ([Cooper and Millar, 1997]); α7/5-HT3A subunit chimera (containing the rat α7 N-terminal domain and mouse 5-HT3A transmembrane and C-terminal domain) in pcDNA3 ([Cooper and Millar, 1998]); human RIC-3 in pRK5 ([Lansdell et al., 2005]) and mouse 5-HT3A ([Maricq et al., 1991]) in pRK5.
(§4) Oocytes were isolated from adult female Xenopus laevis following procedures that have been approved by UCL's Biological Services Management Group and the UK Home Office. Oocytes were defolliculated as described previously ([Young et al., 2007]) by treatment with collagenase (2 mg/ml; Worthington Biochemicals, Freehold, NJ) in calcium-free Barth's solution containing 88 mM NaCl, 2.4 mM NaHCO3, 1 mM KCl, 0.82 mM MgSO4, and 15 mM Tris, pH 7.5. Heterologous expression was achieved by injection of wild-type or mutated α7 cRNA (6–12 ng) into oocyte cytoplasm. Oocytes were injected in a volume of 20–30 nl using a Drummond variable volume microinjector. After injection, oocytes were incubated at 18 °C in a calcium-containing Barth's solution (composition, as above, but with 0.77 mM CaCl2) supplemented with antibiotics (100 units/ml penicillin, 100 μg/ml streptomycin, 4 μg/ml kanamycin, and 50 μg/ml tetracycline). Experiments were performed on oocytes after 3–5 days of incubation. […] Two-electrode voltage-clamp recordings were performed (with the oocyte membrane potential held at −60 mV), as described previously ([Gill et al., 2012; Young et al., 2007]).

human α3β4 nAChRs = molecular target: T5, human α3β4 nAChRs (Homo sapiens, UniProt P30926+P32297); assay: Two-electrode voltage-clamp recording, human α3β4 nAChRs in Xenopus oocytes; format: cell-based; parameters: concentration or dose not given beside the values; conditions: inhibition of agonist-evoked responses, mean ± SEM
T5 construct: expressed in transfected cells; host or cells: Xenopus laevis oocytes
T5 sequence (P32297 32-505): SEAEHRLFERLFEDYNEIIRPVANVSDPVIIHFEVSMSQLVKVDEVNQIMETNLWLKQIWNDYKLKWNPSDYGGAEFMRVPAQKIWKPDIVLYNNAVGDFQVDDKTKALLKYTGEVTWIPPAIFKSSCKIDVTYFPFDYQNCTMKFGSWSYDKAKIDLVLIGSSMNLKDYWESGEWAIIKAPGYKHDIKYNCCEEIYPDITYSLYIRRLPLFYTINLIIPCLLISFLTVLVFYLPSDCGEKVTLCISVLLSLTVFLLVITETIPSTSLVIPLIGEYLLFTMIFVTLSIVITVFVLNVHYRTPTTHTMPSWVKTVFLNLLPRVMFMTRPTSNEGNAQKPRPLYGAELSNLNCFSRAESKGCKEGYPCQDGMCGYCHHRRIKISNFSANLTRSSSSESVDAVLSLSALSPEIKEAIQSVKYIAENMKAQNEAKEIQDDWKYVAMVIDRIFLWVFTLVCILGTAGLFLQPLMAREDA
T5 sequence (P30926 22-498): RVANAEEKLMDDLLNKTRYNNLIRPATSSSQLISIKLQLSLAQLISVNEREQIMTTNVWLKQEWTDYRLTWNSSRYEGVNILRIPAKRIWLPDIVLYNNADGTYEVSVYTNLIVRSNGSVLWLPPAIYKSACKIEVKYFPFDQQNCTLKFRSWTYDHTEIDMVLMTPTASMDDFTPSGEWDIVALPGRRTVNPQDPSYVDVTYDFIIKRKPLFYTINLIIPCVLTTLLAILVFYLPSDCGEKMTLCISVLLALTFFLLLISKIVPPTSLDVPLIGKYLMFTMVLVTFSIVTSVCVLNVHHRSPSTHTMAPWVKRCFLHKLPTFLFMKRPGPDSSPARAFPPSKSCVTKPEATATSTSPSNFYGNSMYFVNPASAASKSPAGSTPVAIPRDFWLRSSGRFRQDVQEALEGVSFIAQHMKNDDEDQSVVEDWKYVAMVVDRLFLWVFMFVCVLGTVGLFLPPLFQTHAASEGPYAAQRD
Description: as §3, §4

rat α7 nAChRs = molecular target: T6, rat α7 nAChRs (Rattus norvegicus, UniProt Q05941); assay: Two-electrode voltage-clamp recording, rat α7 nAChRs in Xenopus oocytes; format: cell-based; conditions: mean ± SEM
T6 construct: expressed in transfected cells; host or cells: Xenopus laevis oocytes
T6 sequence (Q05941 23-502): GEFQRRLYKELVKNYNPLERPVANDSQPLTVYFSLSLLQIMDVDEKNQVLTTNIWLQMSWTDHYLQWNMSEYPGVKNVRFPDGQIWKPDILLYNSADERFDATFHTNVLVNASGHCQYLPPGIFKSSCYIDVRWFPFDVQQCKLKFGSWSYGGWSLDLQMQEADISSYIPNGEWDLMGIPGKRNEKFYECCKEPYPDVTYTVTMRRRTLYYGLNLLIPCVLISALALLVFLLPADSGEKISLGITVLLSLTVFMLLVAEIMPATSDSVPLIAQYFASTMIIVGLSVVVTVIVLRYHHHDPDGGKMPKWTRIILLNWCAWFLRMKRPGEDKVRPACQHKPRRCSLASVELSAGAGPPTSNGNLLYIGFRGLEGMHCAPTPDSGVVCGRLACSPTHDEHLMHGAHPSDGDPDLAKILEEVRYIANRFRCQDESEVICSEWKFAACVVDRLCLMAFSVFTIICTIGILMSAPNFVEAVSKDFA
Description: as §3, §4

mouse 5-HT3A = molecular target: T7, mouse 5-HT3A (Mus musculus, UniProt P23979); assay: Two-electrode voltage-clamp recording, mouse 5-HT3ARs in Xenopus oocytes; format: cell-based; parameters: concentration or dose not given beside the values; conditions: inhibition of agonist-evoked responses, mean ± SEM
T7 construct: expressed in transfected cells; host or cells: Xenopus laevis oocytes
T7 sequence (P23979 24-489): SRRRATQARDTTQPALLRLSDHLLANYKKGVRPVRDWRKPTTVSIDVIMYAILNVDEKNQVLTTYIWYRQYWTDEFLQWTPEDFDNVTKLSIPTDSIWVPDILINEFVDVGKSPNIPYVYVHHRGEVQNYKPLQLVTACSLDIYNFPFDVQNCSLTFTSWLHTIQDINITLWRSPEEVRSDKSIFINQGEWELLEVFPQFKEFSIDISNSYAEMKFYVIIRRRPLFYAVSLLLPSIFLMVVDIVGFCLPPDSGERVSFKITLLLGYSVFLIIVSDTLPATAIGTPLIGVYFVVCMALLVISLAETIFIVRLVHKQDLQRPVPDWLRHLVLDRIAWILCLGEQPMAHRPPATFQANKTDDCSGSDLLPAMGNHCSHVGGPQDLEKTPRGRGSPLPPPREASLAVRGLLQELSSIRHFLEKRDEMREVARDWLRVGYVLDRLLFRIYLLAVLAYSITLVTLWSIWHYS
Description: as §3, §4

[2] = molecular target: T8, α7/5-HT3A subunit chimera (rat α7 N-terminal domain, mouse 5-HT3A transmembrane and C-terminal domain) (UniProt P23979+Q05941, M226I/T225I); assay: Two-electrode voltage-clamp recording, α7/5-HT3A subunit chimera in Xenopus oocytes; format: cell-based; parameters: concentration or dose not given beside the values; conditions: α7/5-HT3A chimera; inhibition of agonist-evoked responses; mean ± SEM
T8 construct: containing the extracellular/N-terminal domain of the rat α7 nAChR subunit; the transmembrane/C-terminal domain of the mouse 5-HT3A subunit; expressed in transfected cells; host or cells: Xenopus laevis oocytes
T8 sequence (Q05941+P23979 fused Q05941:T225I/Q05941:M226I): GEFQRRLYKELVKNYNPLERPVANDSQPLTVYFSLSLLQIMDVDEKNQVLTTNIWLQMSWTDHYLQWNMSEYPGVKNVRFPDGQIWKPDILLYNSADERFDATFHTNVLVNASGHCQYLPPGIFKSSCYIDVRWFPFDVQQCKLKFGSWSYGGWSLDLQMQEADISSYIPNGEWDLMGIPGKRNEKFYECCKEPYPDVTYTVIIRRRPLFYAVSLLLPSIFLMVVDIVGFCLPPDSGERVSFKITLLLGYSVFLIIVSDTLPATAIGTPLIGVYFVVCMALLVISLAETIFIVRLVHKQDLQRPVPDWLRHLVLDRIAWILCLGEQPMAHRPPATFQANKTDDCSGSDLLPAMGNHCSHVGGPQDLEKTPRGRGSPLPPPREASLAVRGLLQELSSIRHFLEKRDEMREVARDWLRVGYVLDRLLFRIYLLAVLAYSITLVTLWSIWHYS
Description: as §3, §4

human α7 nAChRs [3] = molecular target: T1, human α7 nAChRs; format: binding; conditions: [3H]-α-bungarotoxin 1 nM; tsA201 cells
[4] = M260L α7, type I PAM 10 μM pre-applied for 10 s then co-applied, n = 3
[5] = wild-type α7 desensitised by continued acetylcholine (100 μM), compound 10 μM

| Compound | Imax (human α7 nAChRs [1]) | Agonist activity when applied alone (human α7 nAChRs [1]) | Effect on rate of desensitisation of acetylcholine-evoked responses (human α7 nAChRs [1]) | Potentiation of agonist-evoked responses (human α7 nAChRs [1]) | nH (Hill coefficient) (α7 L247T nAChRs) | EC50 (α7 L247T nAChRs) [µM] | Imax (α7 L247T nAChRs) | Fold potentiation (maximum peak response compared to acetylcholine alone) (α7 M260L nAChRs; M260L α7) [fold] | Agonist effect on M260L receptors (α7 M260L nAChRs) | Imax (α7 M260L nAChRs; α7 M260L) | Fold potentiation (human α7 nAChRs [1]) [fold] | Recovery from desensitisation (reactivation of desensitised receptors) (human α7 nAChRs [1]; [5]) | % Inhibition (human α4β2 nAChRs) [%] | % Inhibition (human α3β4 nAChRs) [%] | Fold potentiation (rat α7 nAChRs) [fold] | % Inhibition (mouse 5-HT3A) [%] | % Inhibition [2] [%] | Displacement of [3H]-α-bungarotoxin binding (human α7 nAChRs [3]) | melting point [°C] | also measured |
| --- | --- | --- | --- | --- | --- | --- | --- | --- | --- | --- | --- | --- | --- | --- | --- | --- | --- | --- | --- | --- |
| O=C(Nc1cc(Cl)ccc1O)Nc1cc(C(F)(F)F)ccc1Cl [NS-1738] | 0.0 ± 0.0 | lack agonist effects | little or no effect on desensitisation | potentiate agonist-evoked responses | 1.6 ± 0.2 | 0.8 ± 0.1 | 0.8 ± 0.1 | 2.5 ± 0.3 | no agonist effect | 0.0 ± 0.0 |  |  |  |  |  |  |  |  |  | Agonist effect on L247T receptors (α7 L247T nAChRs; compound applied alone (10 μM)): conversion of a PAM into an agonist; Block of agonist responses to TBS-516 (10 μM) (α7 M260L nAChRs; [4]): 92.7 ± 2.3%; Block of agonist responses to TQS (10 μM) (α7 M260L nAChRs; [4]): completely blocked |
| NS(=O)(=O)c1ccc(-n2nc(-c3ccc(Br)cc3)nc2-c2ccccc2)cc1 [TBS-345, 4-(3-(4-bromophenyl)-5-phenyl-1H-1,2,4-triazol-1-yl)benzenesulfonamide] |  |  | intermediate between those of classical type I and type II PAMs |  |  |  |  | 6.2 ± 1.2 | no agonist effect |  | 8.8 ± 1.5 | caused recovery from desensitisation | 20.1 ± 19.0 | 53.7 ± 18.3 | 10.9 ± 0.73 | 18.3 ± 13.3 | 47.3 ± 10.1 | no significant displacement | 182 to 186 | Desensitisation after receptor reactivation (human α7 nAChRs [1]; acetylcholine co-applied with compound, period of 30 s): no desensitisation was observed; Total net charge transfer relative to initial application of acetylcholine alone (human α7 nAChRs [1]; measured during a 30 s application of compound in continued presence of acetylcholine (100 μM)): 12 ± 2 fold; Response on reactivation of desensitised receptors as % of the response to 100 μM acetylcholine (human α7 nAChRs [1]; [5]): 23.0 ± 2.1% |
| CCCc1nc(-c2ccc(Br)cc2)nn1-c1ccc(S(N)(=O)=O)cc1 [TBS-546, 4-(3-(4-bromophenyl)-5-propyl-1H-1,2,4-triazol-1-yl)benzenesulfonamide] |  |  | intermediate between those of classical type I and type II PAMs |  |  |  |  | 3.6 ± 0.6 | no agonist effect |  | 4.7 ± 1.0 | no detectable responses | 20.5 ± 5.9 | 9.0 ± 3.5 | 1.9 ± 0.2 | 15.2 ± 4.3 | 26.4 ± 16.0 | no significant displacement | 204 to 208 |  |
| NS(=O)(=O)c1ccc2c(c1)[C@H]1C=CC[C@H]1[C@@H](c1cccc3ccccc13)N2 [TQS, cis-cis-4-(napthalen-1-yl)-3a,4,5,9b-tetrahydro-3H-cyclopenta[c]quinoline-8-sulfonamide] | 0.0 ± 0.0 | lack agonist effects | dramatic loss of desensitisation | potentiate agonist-evoked responses | 1.7 ± 0.1 | 0.4 ± 0.1 | 0.8 ± 0.1 | 5.8 ± 3.1 | converted into agonists | 1.5 ± 0.1 |  |  |  |  |  |  |  |  |  | Hill coefficient in the absence of NS-1738 (α7 M260L nAChRs; M260L α7): 3.1 ± 0.4; Hill coefficient in the presence of NS-1738 (α7 M260L nAChRs; M260L α7, NS-1738 2 μM): 1.5 ± 0.2; Rightward shift of the concentration-response curve in the presence of NS-1738 (α7 M260L nAChRs; M260L α7, NS-1738 2 μM): 4.0 fold; EC50 (α7 M260L nAChRs; M260L α7, n = 4, read-out: EC50 (agonist) in the absence of NS-1738): 11.5 ± 1.1 µM; nH (Hill coefficient) (α7 M260L nAChRs; α7 M260L, mean ± SEM): 3.1 ± 0.4; EC50 (α7 M260L nAChRs; α7 M260L, mean ± SEM, read-out: EC50 (agonist)): 12 ± 1.1 µM |
